Marks after values point to notes of the source that are not given here.
Tests used:
CATPO [1] = biological target: T1, CATPO (Scytalidium thermophilum (Humicola insolens), UniProt M4GGR5); assay: Substrate-specificity analysis of the phenol oxidase activity; type: biochemical
CATPO E484A variant [2] = biological target: T2, CATPO E484A variant (Scytalidium thermophilum (Humicola insolens), UniProt M4GGR5, E503A); assay: as above; type: biochemical
CATPO E484D variant [3] = biological target: T3, CATPO E484D variant (Scytalidium thermophilum (Humicola insolens), UniProt M4GGR5, E503D); type: biochemical
T3 sequence (M4GGR5 entry or part of it E503D): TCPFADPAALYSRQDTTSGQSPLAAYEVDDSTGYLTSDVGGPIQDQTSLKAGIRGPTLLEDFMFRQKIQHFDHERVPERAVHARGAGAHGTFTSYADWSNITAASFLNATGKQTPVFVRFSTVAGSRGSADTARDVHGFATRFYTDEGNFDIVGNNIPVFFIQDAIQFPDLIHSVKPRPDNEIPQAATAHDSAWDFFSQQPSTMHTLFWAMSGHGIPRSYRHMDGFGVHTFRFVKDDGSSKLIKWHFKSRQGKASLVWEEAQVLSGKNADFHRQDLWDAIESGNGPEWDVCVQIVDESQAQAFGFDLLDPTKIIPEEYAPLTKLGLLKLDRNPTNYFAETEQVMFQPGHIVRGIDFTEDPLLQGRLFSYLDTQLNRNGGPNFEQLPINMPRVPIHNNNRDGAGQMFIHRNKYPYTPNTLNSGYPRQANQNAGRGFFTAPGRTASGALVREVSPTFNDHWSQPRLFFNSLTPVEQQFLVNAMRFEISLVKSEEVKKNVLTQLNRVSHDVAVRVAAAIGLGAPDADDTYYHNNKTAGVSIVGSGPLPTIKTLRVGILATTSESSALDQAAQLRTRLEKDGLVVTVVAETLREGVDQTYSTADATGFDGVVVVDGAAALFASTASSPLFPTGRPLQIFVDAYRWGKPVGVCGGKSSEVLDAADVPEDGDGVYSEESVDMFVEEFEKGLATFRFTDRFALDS

CATPO E484I variant [4] = biological target: T4, CATPO E484I variant (Scytalidium thermophilum (Humicola insolens), UniProt M4GGR5, E503I); type: biochemical
T4 sequence (M4GGR5 entry or part of it E503I): as the sequence (M4GGR5 entry or part of it E503D) above

CATPO T188A variant [5] = biological target: T5, CATPO T188A variant (Scytalidium thermophilum (Humicola insolens), UniProt M4GGR5, T207A); type: biochemical
T5 sequence (M4GGR5 entry or part of it T207A): as the sequence (M4GGR5 entry or part of it E503D) above

CATPO T188D variant [6] = biological target: T6, CATPO T188D variant (Scytalidium thermophilum (Humicola insolens), UniProt M4GGR5, T207D); type: biochemical
T6 sequence (M4GGR5 entry or part of it T207D): as the sequence (M4GGR5 entry or part of it E503D) above

CATPO T188F variant [7] = biological target: T7, CATPO T188F variant (Scytalidium thermophilum (Humicola insolens), UniProt M4GGR5, T207F); type: biochemical
T7 sequence (M4GGR5 entry or part of it T207F): as the sequence (M4GGR5 entry or part of it E503D) above

CATPO T188I variant [8] = biological target: T8, CATPO T188I variant (Scytalidium thermophilum (Humicola insolens), UniProt M4GGR5, T207I); type: biochemical
T8 sequence (M4GGR5 entry or part of it T207I): as the sequence (M4GGR5 entry or part of it E503D) above

CATPO [9] = biological target: T1, CATPO; assay: Inhibition of catechol oxidation; type: biochemical
CATPO E484A variant [10] = biological target: T2, CATPO E484A variant; assay: biochemical
CATPO E484D variant [11] = biological target: T3, CATPO E484D variant; assay: biochemical
CATPO E484I variant [12] = biological target: T4, CATPO E484I variant; assay: biochemical
CATPO T188A variant [13] = biological target: T5, CATPO T188A variant; assay: biochemical
CATPO T188D variant [14] = biological target: T6, CATPO T188D variant; assay: biochemical
CATPO T188F variant [15] = biological target: T7, CATPO T188F variant; assay: biochemical
CATPO T188I variant [16] = biological target: T8, CATPO T188I variant; assay: biochemical
[17] = substrate: CCn1c(=NN=c2sc3cc(S(=O)(=O)O)ccc3n2CC)sc2cc(S(=O)(=O)O)ccc21; assay: purified protein, by the assay type; conditions: 60.0 °C
[18] = substrate: CC(C)(C)c1ccc(O)c(O)c1; assay: Spectrophotometric phenol oxidase assay without H2O2 at pH 7.0 and 60 °C, initial rates fitted to the Michaelis-Menten equation.; type: biochemical
Description: (§1) All inhibition assays were performed in triplicate.

[19] = substrate: Cc1ccc(O)c(O)c1; assay: as above; type: biochemical
Description: as §1

[20] = substrate: Oc1ccc(O)cc1; assay: as above; type: biochemical
Description: as §1

[21] = substrate: Oc1ccccc1O; assay: Spectrophotometric catechol oxidation assay at 420 nm, pH 7.0 and 60 °C; values not normalized to heme content.; type: biochemical
Description: as §1
Tabl e S1 Comparison of gate residues at the entrance of the main channel among large subunit […]
PDB ID e Organism Gate residues
Tabl e S2 K i neti c const ant s
**Catalase activity **Phenol oxidase activity
*KM-app kcat kcat/*KM-app KM kcat kcat/KM
(mM) (s-1) (s-1 M-1) (mM) (s-1) (s-1 M-1) Rz Heme
RZ = A407/A280. T he values were normalized to heme content in each CAT PO variant. T he values in parentheses are for unnor malized val ues a nd shaded in gre y for ease of vie wi ng. *KM-app is the H2O2 concentratio n at Vmax/2 […]
Michaelis–Menten kinetics (Switala & Loewen, 2002).
**One unit of catalase is defined as the amo unt that catalyses the degradation o f 1 µmol H2O2 in 1 min. One unit of phenol oxidase corresponds to the enzyme catalysing the formation of 1 nmol of product per minute.

[22] = substrate: Oc1ccccc1O; assay: Phenol oxidase activity (H2O2-independent) measured spectrophotometrically by product formation at pH 7.0, 60 C, Michaelis-Menten fit.; type: biochemical
Description: as §1

T2 sequence (M4GGR5 entry or part of it E503A): as the sequence (M4GGR5 entry or part of it E503D) above
T1 sequence (M4GGR5 entry or part of it): as the sequence (M4GGR5 entry or part of it E503D) above

## Oc1ccc(O)cc1 [Hydroquinone, p-hydroquinone]
CATPO [1]
  V max: 10000 ± 300 mM/min
  k cat/K m: 750 ± 50 s^−1 M^−1 (×10^2)
CATPO [1]; pH 7.0 (ABTS pH 5.0), 60°C
  K m: 45 ± 1.5 mM
CATPO E484A variant [2]
  V max: 17800 ± 100 mM/min
  k cat/K m: 600 ± 40 s^−1 M^−1 (×10^2)
CATPO E484A variant [2]; pH 7.0 (ABTS pH 5.0), 60°C
  K m: 43 ± 1.2 mM
CATPO E484D variant [3]
  V max: 9900 ± 125 mM/min
  k cat/K m: 300 ± 50 s^−1 M^−1 (×10^2)
CATPO E484D variant [3]; pH 7.0 (ABTS pH 5.0), 60°C
  K m: 46 ± 0.8 mM
CATPO E484I variant [4]
  V max: 10000 ± 100 mM/min
  k cat/K m: 460 ± 20 s^−1 M^−1 (×10^2)
CATPO E484I variant [4]; pH 7.0 (ABTS pH 5.0), 60°C
  K m: 45 ± 1.3 mM
CATPO T188A variant [5]
  V max: 9850 ± 85 mM/min
  k cat/K m: 300 ± 30 s^−1 M^−1 (×10^2)
CATPO T188A variant [5]; pH 7.0 (ABTS pH 5.0), 60°C
  K m: 46 ± 0.4 mM
CATPO T188D variant [6]
  V max: 9600 ± 65 mM/min
  k cat/K m: 480 ± 64 s^−1 M^−1 (×10^2)
CATPO T188D variant [6]; pH 7.0 (ABTS pH 5.0), 60°C
  K m: 46 ± 1.0 mM
CATPO T188F variant [7]
  V max: 13000 ± 140 mM/min
  k cat/K m: 530 ± 65 s^−1 M^−1 (×10^2)
CATPO T188F variant [7]; pH 7.0 (ABTS pH 5.0), 60°C
  K m: 42 ± 1.0 mM
CATPO T188I variant [8]
  V max: 11000 ± 110 mM/min
  k cat/K m: 490 ± 78 s^−1 M^−1 (×10^2)
CATPO T188I variant [8]; pH 7.0 (ABTS pH 5.0), 60°C
  K m: 44 ± 0.4 mM
CATPO [9]
  Ki: 8.5 ± 0.5 mM
CATPO E484A variant [10]
  Ki: 81 ± 4.7 mM
CATPO E484D variant [11]
  Ki: 8.5 ± 1.4 mM
CATPO E484I variant [12]
  Ki: 70 ± 3.5 mM
CATPO T188A variant [13]
  Ki: 8.6 ± 0.6 mM
CATPO T188D variant [14]
  Ki: 66 ± 5.5 mM
CATPO T188F variant [15]
  Ki: 76 ± 5.1 mM
CATPO T188I variant [16]
  Ki: 70 ± 4 mM

B1: E484I (Mycothermus thermophilus; E503I) (protein)
chain: TCPFADPAALYSRQDTTSGQSPLAAYEVDDSTGYLTSDVGGPIQDQTSLKAGIRGPTLLEDFMFRQKIQHFDHERVPERAVHARGAGAHGTFTSYADWSNITAASFLNATGKQTPVFVRFSTVAGSRGSADTARDVHGFATRFYTDEGNFDIVGNNIPVFFIQDAIQFPDLIHSVKPRPDNEIPQAATAHDSAWDFFSQQPSTMHTLFWAMSGHGIPRSYRHMDGFGVHTFRFVKDDGSSKLIKWHFKSRQGKASLVWEEAQVLSGKNADFHRQDLWDAIESGNGPEWDVCVQIVDESQAQAFGFDLLDPTKIIPEEYAPLTKLGLLKLDRNPTNYFAETEQVMFQPGHIVRGIDFTEDPLLQGRLFSYLDTQLNRNGGPNFEQLPINMPRVPIHNNNRDGAGQMFIHRNKYPYTPNTLNSGYPRQANQNAGRGFFTAPGRTASGALVREVSPTFNDHWSQPRLFFNSLTPVEQQFLVNAMRFIISLVKSEEVKKNVLTQLNRVSHDVAVRVAAAIGLGAPDADDTYYHNNKTAGVSIVGSGPLPTIKTLRVGILATTSESSALDQAAQLRTRLEKDGLVVTVVAETLREGVDQTYSTADATGFDGVVVVDGAAALFASTASSPLFPTGRPLQIFVDAYRWGKPVGVCGGKSSEVLDAADVPEDGDGVYSEESVDMFVEEFEKGLATFRFTDRFALDS
notes: recombinant, pET-28-TEV-CATPO; contains heme b; Rz 0.5
[17]
  Km: 50 ± 0.5 mM
[18]
  Km: 37 ± 0.4 mM
[19]
  Km: 35 ± 0.7 mM
[20]
  Km: 45 ± 1.3 mM
[21]
  Km: 40 mM
[22]
  Km: 30 ± 1.0 mM
  kcat: 26500 ± 1320 s⁻¹
  kcat/Km: 880000 ± 7200 M⁻¹ s⁻¹

B2: T188A (Mycothermus thermophilus; T207A) (protein)
chain: TCPFADPAALYSRQDTTSGQSPLAAYEVDDSTGYLTSDVGGPIQDQTSLKAGIRGPTLLEDFMFRQKIQHFDHERVPERAVHARGAGAHGTFTSYADWSNITAASFLNATGKQTPVFVRFSTVAGSRGSADTARDVHGFATRFYTDEGNFDIVGNNIPVFFIQDAIQFPDLIHSVKPRPDNEIPQAAAAHDSAWDFFSQQPSTMHTLFWAMSGHGIPRSYRHMDGFGVHTFRFVKDDGSSKLIKWHFKSRQGKASLVWEEAQVLSGKNADFHRQDLWDAIESGNGPEWDVCVQIVDESQAQAFGFDLLDPTKIIPEEYAPLTKLGLLKLDRNPTNYFAETEQVMFQPGHIVRGIDFTEDPLLQGRLFSYLDTQLNRNGGPNFEQLPINMPRVPIHNNNRDGAGQMFIHRNKYPYTPNTLNSGYPRQANQNAGRGFFTAPGRTASGALVREVSPTFNDHWSQPRLFFNSLTPVEQQFLVNAMRFEISLVKSEEVKKNVLTQLNRVSHDVAVRVAAAIGLGAPDADDTYYHNNKTAGVSIVGSGPLPTIKTLRVGILATTSESSALDQAAQLRTRLEKDGLVVTVVAETLREGVDQTYSTADATGFDGVVVVDGAAALFASTASSPLFPTGRPLQIFVDAYRWGKPVGVCGGKSSEVLDAADVPEDGDGVYSEESVDMFVEEFEKGLATFRFTDRFALDS
notes: recombinant, pET-28-TEV-CATPO; contains heme d; Rz 0.7
[17]
  Km: 52 ± 0.8 mM
[18]
  Km: 37 ± 1.0 mM
[19]
  Km: 35 ± 1.0 mM
[20]
  Km: 46 ± 0.4 mM
[21]
  Km: 33 ± 0.5 mM
  kcat: 6700 ± 335 s⁻¹
  kcat/Km: 200000 ± 12000 M⁻¹ s⁻¹
